IC50 and Max inh. data for 4 compounds are collected here from patent US20220088016A1, “CANCER TREATMENT USING MULTI-TARGETED KINASE INHIBITOR IN COMBINATION OF PROTEIN KINASE BIOMARKERS” (ZHEJIANG CROWNMAB BIOTECH CO. LTD., priority 2019, published 2022).

Where two headings read alike, the source gives them in different places. A value given as a limit tells only on which side of the number the result lay.

In one assay the test system is BaF3 hCSF1R cell line. Put plainly: Proliferation of engineered BaF3 hCSF1R cell line (CTG assay). The format is cell-based. Here is the method: (§1) Two syngeneic cell lines M-NFS-60 and RAW264.7 and engineered BaF3 hCSFIR cell line were starved and then tested with CBT-102 and other test articles for 3 days in the temperature of 37° C., 5% CO2 and 95% humidity. The cell viability was then detected using CTG assay. The software of GraphPad Prism was used to calculate IC50.
(§2) CSF-1 dependent mouse myeloid M-NFS-60 cells were employed as target cells while a CSF-1 independent cell line Raw 264.7 was used as a negative control. In addition to CBT-102, the study also included 3 CSF-1R inhibitors: GW2580, BLZ945 and Pexidartinib.

In the next assay the test system is RAW264.7 cells. Put plainly: Proliferation of RAW264.7 cells (CTG assay). The format is cell-based. As to conditions: RAW264.7 (CSF-1 independent, negative control), 3 days. Here is the method: as §1, §2
Another assay concerns M-NFS-60 cells. The experiment in a line: Proliferation of M-NFS-60 cells (CTG assay). It is filed as cell-based, mouse. The conditions noted are these: M-NFS-60 (CSF-1 dependent), 3 days. How it is done:
as §1, §2

The IC50 is the concentration at which inhibition is half-maximal.

For the compound `Cc1cc2cc(Oc3ccnc(Nc4cccc(CS(=O)(=O)NCCN(C)C)c4)n3)ccc2[nH]1` [sulfatinib], in the assay on BaF3 hCSF1R cell line (Mus musculus, BaF3, 72 h), inhibition was half-maximal at 1330 nM (IC50).
Turning to `CNC(=O)c1cc(Oc2ccc3nc(N[C@@H]4CCCC[C@H]4O)sc3c2)ccn1` [BLZ945], the IC50 with RAW264.7 cells (Mus musculus, 72 h) is over 30000 nM; in the assay with M-NFS-60 cells (Mus musculus, 72 h), 3020 nM. Besides, the Max inh. in the assay with RAW264.7 cells came to 24.65%; with M-NFS-60 cells, 99.08%.
Consider `COc1ccc(COc2ccc(Cc3cnc(N)nc3N)cc2OC)cc1` [GW2580], for which the concentration for half-maximal inhibition (IC50) in the assay with RAW264.7 cells came out at 4060 nM; in the assay with M-NFS-60 cells it was 1140 nM; in the assay with BaF3 hCSF1R cell line (engineered BaF3 hCSF1R, 3 days, CTG, read-out: IC50), 279 nM. The Max inh. in the assay with RAW264.7 cells was 81.91%; in the assay with M-NFS-60 cells, 99.02%.
With `FC(F)(F)c1ccc(CNc2ccc(Cc3c[nH]c4ncc(Cl)cc34)cn2)cn1` [PLX3397], the half-maximal inhibitory concentration (IC50) in the assay on RAW264.7 cells (Mus musculus, 72 h) is 16400 nM; in the assay with M-NFS-60 cells (Mus musculus, 72 h), 348 nM. Further, the Max inh. came to 95.16% in the assay on RAW264.7 cells and 99.32% in the assay on M-NFS-60 cells.
